According to US20150094328A1, “4-Azaindole Derivatives” (Eisai R&D Management Co., Ltd., priority 2013, published 2015):

Test system: male Crlj: WI rats
Experiment: Morris water maze test in ibotenic acid-induced learning disability model
Type: in vivo, rat
Procedure: Ibotenic acid at 5 μg/0.5 μL was injected into both basal nuclei of 8-week old male Crlj: WI rats, and a Morris water maze test was performed 10-14 days after ibotenic acid injection. It has been reported that rats in which basal forebrain was lesioned by ibotenic acid injection show learning disability in the Morris water maze test. (Pharmacopsychiat, 1999, 32, 242-247). The test is considered a model of spatial learning and memory.
Learning trials were performed twice a day at an interval of 3 hours for 4 days (8 times in total), and probe trials were performed once the day after completion of the learning trials. Each test compound was dissolved in a 0.5% methylcellulose in water and orally administered 1 hour before the first trial on each day of the learning trials and 1 hour before the trial on the day of the probe trials. […]
In learning trials, the animal was put into water and goal latency and swimming distance to reach the platform were measured (measurement time: 90 seconds at the longest) by a video image behavioral analysis device (Etho Vision XT, Noldus Information Technology Inc.). […]
In probe trials, the platform was removed from the pool. The animal was put into water, and the swimming time in the quadrant where the platform had been located in the learning trials and the frequency of entry into the platform area where the platform had been located in the learning trials were measured by Etho Vision XT.
Each value was shown as an average and a standard error (n=10). The statistical significance between a control group and a vehicle group was analyzed by the independent t-test. The statistical significance between the vehicle group and each sample group was analyzed by one-way analysis of variance and then by Dunnett's multiple comparison test. […]

Measured: Goal latency [mean ± SEM]

O=C(N[C@H]1CCCC[C@@H]1O)c1cn(Cc2ccc(F)cc2)c2cccnc12 [Example 5, 1-(4-Fluorobenzyl)-N-((1S,2S)-2-hydroxycyclohexyl)-1H-pyrrolo[3,2-b]pyridine-3-carboxamide]
[90 ± 0.00] sec.: Trial 1, 0.1 mg/kg p.o. | Trial 1, 0.3 mg/kg p.o. | Trial 2, 0.1 mg/kg p.o.
